20 compounds from BindingDB's records for doi:10.1016/j.bmcl.2015.03.038 (Bristol Myers Squibb, 2015) can be followed below.

Test [1] concerns the target Neurogenic locus notch homolog protein 3 (Human, UniProt Q9UM47). The experiment in a line: Inhibition of Notch3 intracellular domain fragment transfected in human HeLa cells co-transfected with CBF1-PGL3 luciferase reporter vector by transactivation assay. On the technique in general: A reporter such as luciferase makes a cellular process visible.
The target of test [2] is Neurogenic locus notch homolog protein 1 (Homo sapiens, UniProt P46531). The experiment in a line: Inhibition of Notch1 intracellular domain fragment transfected in human HeLa cells co-transfected with CBF1-PGL3 luciferase reporter vector by transactivation assay.
In test [3] the target is Neurogenic locus notch homolog protein 2 (Homo sapiens, UniProt Q04721). Kind of test: Inhibition of Notch2 intracellular domain fragment transfected in human HeLa cells co-transfected with CBF1-PGL3 luciferase reporter vector by transactivation assay.
The target in test [4] is Neurogenic locus notch homolog protein 4 (Homo sapiens, UniProt Q99466). Kind of test: Inhibition of Notch4 intracellular domain fragment transfected in human HeLa cells co-transfected with CBF1-PGL3 luciferase reporter vector by transactivation assay.

What is called IC50 is the concentration needed to halve the response being measured.

Neurogenic locus notch homolog protein 3, sequence (Q9UM47 whole entry, the tested form may be a part): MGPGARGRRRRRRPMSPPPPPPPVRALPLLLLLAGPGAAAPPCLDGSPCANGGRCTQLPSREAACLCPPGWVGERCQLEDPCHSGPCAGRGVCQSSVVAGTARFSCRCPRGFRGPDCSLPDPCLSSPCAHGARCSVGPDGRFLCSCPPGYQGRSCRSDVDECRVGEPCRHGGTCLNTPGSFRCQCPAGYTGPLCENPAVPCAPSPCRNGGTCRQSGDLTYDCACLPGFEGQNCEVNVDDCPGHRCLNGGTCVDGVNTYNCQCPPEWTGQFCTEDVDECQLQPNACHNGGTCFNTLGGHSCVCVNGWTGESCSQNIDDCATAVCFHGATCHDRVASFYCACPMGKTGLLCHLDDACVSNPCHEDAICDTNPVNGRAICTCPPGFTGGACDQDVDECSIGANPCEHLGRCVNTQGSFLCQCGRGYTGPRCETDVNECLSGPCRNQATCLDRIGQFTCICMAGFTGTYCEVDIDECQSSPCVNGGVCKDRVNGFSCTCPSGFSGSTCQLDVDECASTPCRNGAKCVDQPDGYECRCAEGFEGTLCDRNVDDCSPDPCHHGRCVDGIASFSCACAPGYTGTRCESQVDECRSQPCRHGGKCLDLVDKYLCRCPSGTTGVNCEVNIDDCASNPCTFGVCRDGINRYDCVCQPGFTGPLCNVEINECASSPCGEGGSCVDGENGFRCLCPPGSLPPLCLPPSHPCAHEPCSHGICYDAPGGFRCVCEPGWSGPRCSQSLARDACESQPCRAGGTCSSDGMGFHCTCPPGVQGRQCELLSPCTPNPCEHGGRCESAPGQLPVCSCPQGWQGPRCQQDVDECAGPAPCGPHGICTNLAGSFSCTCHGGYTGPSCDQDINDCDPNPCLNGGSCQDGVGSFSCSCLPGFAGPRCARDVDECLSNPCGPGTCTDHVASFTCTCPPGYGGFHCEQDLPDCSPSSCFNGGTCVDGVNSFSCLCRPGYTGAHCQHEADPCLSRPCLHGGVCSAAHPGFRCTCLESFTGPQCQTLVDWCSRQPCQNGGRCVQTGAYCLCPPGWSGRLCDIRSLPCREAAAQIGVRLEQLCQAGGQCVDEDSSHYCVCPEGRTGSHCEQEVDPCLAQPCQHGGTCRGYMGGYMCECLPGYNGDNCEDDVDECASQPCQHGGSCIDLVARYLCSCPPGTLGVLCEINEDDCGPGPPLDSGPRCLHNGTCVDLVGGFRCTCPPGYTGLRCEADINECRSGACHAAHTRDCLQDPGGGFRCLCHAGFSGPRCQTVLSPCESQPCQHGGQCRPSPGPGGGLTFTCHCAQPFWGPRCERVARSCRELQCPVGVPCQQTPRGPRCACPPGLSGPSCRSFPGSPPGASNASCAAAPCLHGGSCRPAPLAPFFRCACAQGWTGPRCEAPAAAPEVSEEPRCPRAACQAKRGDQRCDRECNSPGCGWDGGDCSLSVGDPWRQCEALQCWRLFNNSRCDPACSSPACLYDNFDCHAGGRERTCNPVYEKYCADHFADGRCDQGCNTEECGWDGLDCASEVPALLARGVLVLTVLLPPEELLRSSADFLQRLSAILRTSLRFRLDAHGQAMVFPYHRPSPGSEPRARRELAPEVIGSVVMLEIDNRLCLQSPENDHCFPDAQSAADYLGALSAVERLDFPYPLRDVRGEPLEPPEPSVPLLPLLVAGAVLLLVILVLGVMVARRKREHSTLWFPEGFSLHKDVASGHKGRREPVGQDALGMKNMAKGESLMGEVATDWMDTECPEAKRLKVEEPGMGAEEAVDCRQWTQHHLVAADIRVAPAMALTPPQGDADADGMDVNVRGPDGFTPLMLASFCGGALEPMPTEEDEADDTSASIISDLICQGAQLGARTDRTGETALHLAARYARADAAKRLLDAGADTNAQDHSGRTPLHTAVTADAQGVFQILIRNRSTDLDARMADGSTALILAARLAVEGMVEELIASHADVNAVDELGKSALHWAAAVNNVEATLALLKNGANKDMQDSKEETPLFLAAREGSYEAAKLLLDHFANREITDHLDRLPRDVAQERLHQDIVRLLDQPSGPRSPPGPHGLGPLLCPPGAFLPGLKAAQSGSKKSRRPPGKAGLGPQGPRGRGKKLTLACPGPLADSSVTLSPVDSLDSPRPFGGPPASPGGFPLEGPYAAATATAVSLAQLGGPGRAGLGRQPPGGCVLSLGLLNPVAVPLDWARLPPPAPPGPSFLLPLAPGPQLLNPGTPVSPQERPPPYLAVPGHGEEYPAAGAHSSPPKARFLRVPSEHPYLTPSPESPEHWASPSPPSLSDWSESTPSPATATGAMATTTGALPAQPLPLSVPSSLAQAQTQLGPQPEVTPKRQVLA
Neurogenic locus notch homolog protein 1, sequence (P46531 whole entry, the tested form may be a part): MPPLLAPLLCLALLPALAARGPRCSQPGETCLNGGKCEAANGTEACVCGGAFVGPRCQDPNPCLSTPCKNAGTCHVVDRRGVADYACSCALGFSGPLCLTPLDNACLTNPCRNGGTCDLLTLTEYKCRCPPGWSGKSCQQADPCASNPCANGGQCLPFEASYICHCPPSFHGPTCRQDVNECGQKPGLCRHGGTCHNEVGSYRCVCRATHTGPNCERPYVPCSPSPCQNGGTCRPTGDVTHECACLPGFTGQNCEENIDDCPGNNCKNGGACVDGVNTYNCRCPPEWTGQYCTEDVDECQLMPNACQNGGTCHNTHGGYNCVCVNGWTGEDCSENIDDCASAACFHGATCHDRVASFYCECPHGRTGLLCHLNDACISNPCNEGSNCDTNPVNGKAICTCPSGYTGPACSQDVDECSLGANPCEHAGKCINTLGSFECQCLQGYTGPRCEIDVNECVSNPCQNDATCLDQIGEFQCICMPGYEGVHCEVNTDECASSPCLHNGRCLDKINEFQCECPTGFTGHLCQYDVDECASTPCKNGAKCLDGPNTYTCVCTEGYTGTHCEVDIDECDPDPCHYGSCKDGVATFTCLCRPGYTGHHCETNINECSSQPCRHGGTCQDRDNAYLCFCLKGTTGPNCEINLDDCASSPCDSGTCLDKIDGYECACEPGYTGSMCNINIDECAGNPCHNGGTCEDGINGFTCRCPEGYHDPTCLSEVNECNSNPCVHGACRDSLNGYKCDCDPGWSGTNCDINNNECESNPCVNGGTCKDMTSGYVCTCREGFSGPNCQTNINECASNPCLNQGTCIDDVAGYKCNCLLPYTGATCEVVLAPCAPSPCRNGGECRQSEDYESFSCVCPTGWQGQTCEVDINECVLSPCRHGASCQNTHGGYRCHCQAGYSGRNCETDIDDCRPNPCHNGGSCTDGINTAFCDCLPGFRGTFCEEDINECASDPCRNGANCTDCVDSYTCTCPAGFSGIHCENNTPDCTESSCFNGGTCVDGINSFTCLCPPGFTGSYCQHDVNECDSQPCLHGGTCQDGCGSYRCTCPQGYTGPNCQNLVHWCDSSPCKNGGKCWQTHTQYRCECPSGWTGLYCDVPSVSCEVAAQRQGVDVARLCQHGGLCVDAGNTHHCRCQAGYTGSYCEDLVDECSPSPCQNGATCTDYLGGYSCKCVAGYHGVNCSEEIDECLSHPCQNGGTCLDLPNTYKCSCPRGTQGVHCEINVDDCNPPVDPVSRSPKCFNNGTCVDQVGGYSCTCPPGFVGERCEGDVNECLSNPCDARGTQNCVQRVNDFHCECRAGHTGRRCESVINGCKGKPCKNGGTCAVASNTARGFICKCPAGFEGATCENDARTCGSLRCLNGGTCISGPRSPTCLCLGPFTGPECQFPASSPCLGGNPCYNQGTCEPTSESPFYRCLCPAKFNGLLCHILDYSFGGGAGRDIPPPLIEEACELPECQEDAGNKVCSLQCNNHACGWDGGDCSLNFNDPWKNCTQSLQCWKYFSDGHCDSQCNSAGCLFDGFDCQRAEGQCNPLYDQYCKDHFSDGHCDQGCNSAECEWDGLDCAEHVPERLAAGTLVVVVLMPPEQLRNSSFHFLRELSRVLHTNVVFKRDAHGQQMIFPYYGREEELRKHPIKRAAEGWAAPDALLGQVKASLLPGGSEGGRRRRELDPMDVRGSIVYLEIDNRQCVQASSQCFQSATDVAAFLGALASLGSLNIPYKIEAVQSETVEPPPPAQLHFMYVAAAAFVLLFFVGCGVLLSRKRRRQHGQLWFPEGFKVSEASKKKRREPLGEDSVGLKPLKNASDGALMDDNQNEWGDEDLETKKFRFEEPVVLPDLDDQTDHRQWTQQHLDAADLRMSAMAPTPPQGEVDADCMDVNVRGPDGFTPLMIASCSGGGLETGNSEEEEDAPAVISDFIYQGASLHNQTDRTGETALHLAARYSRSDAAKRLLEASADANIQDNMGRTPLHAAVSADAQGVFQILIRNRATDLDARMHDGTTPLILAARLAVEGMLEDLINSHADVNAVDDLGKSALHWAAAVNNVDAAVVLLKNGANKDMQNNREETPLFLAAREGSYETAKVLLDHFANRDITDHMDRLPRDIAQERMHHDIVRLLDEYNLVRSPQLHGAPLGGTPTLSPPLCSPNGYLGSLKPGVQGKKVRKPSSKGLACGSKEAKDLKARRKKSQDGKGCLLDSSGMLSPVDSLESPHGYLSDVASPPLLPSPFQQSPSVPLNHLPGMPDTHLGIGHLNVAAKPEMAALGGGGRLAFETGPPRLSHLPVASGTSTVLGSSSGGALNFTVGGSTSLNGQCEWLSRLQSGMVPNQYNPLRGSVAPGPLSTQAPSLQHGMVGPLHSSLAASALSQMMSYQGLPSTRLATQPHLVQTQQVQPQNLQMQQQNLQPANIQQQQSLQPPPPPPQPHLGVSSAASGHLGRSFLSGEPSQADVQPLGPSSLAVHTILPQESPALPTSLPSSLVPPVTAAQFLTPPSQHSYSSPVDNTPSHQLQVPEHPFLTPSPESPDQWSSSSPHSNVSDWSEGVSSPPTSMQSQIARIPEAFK

On to `CN1C(=O)[C@@H](NC(=O)[C@H](CCC(F)(F)F)[C@@H](C(N)=O)c2ccc(F)cc2F)N=C(c2ccccc2)c2ccccc21`, for which the IC50 in test [1] and in test [2] was 1 nM in each case. On to `NC(=O)[C@@H](c1ncon1)[C@@H](CCC(F)(F)F)C(=O)N[C@H]1N=C(c2ccccc2)c2ccccc2NC1=O`, for which the IC50 in test [1] turned out to be 656 nM; in test [2], 1190 nM. With `CCC(CC)[C@H](C(N)=O)[C@@H](CC(C)(C)C)C(=O)N[C@H]1N=C(c2ccccc2)c2ccccc2N(C)C1=O`, the IC50 in test [1] and in test [2] was 3 nM throughout.

Turning to `NC(=O)[C@@H](c1cocn1)[C@@H](CCC(F)(F)F)C(=O)N[C@H]1N=C(c2ccccc2)c2ccccc2NC1=O`, the IC50 in test [1] is 161 nM; in test [2] it was 231 nM. With `CN1C(=O)[C@@H](NC(=O)[C@H](CCC(F)(F)F)[C@@H](C(N)=O)c2cc(F)cc(F)c2)N=C(c2ccccc2)c2ccccc21`, the IC50 in test [1] and in test [2] was 2 nM in each case. With `Cc1cc([C@H](C(N)=O)[C@@H](CCC(F)(F)F)C(=O)N[C@H]2N=C(c3ccccc3)c3ccccc3N(C)C2=O)no1`, the IC50 in test [1] was 62 nM; in test [2], 54 nM.

With `CN1C(=O)[C@@H](NC(=O)[C@H](CCC(F)(F)F)[C@@H](C(N)=O)c2cccc(OC(F)(F)F)c2)N=C(c2ccccc2)c2ccccc21`, the results for the IC50 in test [1] and in test [2] were 4 nM and 3 nM, respectively.

On to `CN1C(=O)[C@@H](NC(=O)[C@H](CCC(F)(F)F)[C@@H](C(N)=O)c2ccc(F)cc2)N=C(c2ccccc2)c2ccccc21`, for which the IC50 in test [1] worked out at 1 nM; in test [2], 2 nM.

With `COc1ccc([C@H](C(N)=O)[C@@H](CCC(F)(F)F)C(=O)N[C@H]2N=C(c3ccccc3)c3ccccc3N(C)C2=O)cc1`, the IC50 in test [1] was found to be 6 nM; in test [2], 9 nM. On to `CN1C(=O)[C@@H](NC(=O)[C@H](CCC(F)(F)F)[C@@H](C(N)=O)c2cccc(C(F)(F)F)c2)N=C(c2ccccc2)c2ccccc21`, for which the IC50 in test [1] was found to be 2 nM; in test [2], 1 nM.

For `Cc1nc([C@H](C(N)=O)[C@@H](CCC(F)(F)F)C(=O)N[C@H]2N=C(c3ccccc3)c3ccccc3N(C)C2=O)no1`, the values for the IC50 in test [1] and in test [2] were 119 nM and 169 nM, respectively. For `Cc1nocc1[C@H](C(N)=O)[C@@H](CCC(F)(F)F)C(=O)N[C@H]1N=C(c2ccccc2)c2ccccc2N(C)C1=O`, the IC50 in test [1] and in test [2] was 3 nM in each case. For `CN1C(=O)[C@@H](NC(=O)[C@H](CCC(F)(F)F)[C@@H](C(N)=O)c2ccc(F)c(F)c2)N=C(c2ccccc2)c2ccccc21`, the IC50 in test [1] and in test [2] was 2 nM each time. Take `CCC[C@H](C(N)=O)[C@@H](CC(F)(F)F)C(=O)N[C@H]1N=C(c2ccccc2)c2ccccc2N(C)C1=O`: the values for the IC50 in test [1] and in test [2] were 24 nM and 13 nM, respectively. As for `CN1C(=O)[C@@H](NC(=O)[C@H](CCC(F)(F)F)[C@@H](C(N)=O)c2cccc(S(C)(=O)=O)c2)N=C(c2ccccc2)c2ccccc21`, the IC50 in test [1] is 2240 nM; in test [2], 2060 nM. `NC(=O)[C@@H](c1cnoc1)[C@@H](CCC(F)(F)F)C(=O)N[C@H]1N=C(c2ccccc2)c2ccccc2NC1=O`: the IC50 in test [1] is 29 nM; in test [2], 32 nM. `CN1C(=O)[C@@H](NC(=O)[C@H](CCC(F)(F)F)[C@@H](C(N)=O)c2ccccc2)N=C(c2ccccc2)c2ccccc21`: the IC50 worked out at 1 nM in test [3] and 3 nM in test [4]. With `CCC(CC)[C@H](C(N)=O)[C@@H](CCC(F)(F)F)C(=O)N[C@H]1N=C(c2ccccc2)c2ccccc2N(C)C1=O`, the IC50 in test [1] and in test [2] was 1 nM each time.

Consider `Cc1cccc([C@H](C(N)=O)[C@@H](CCC(F)(F)F)C(=O)N[C@H]2N=C(c3ccccc3)c3ccccc3N(C)C2=O)c1`, for which the IC50 in test [1] is 1 nM; in test [2], 3 nM.

As to `CCC(CC)[C@H](C(N)=O)[C@@H](CC(C)C)C(=O)N[C@H]1N=C(c2ccccc2)c2ccccc2N(C)C1=O`, in test [2], half-maximal inhibition (IC50) was put at 2 nM.
